Measured values reported in ChEMBL document CHEMBL5532675, “Discovery of 4-Ethoxy-6-chloro-5-azaindazoles as Novel PDE4 Inhibitors for the Treatment of Alcohol Use Disorder and Alcoholic Liver Diseases” (J Med Chem, 2024).
Calls of active or inactive are those of the source. The rule behind the calls is not given here.

Columns and labels:
[1] = biological target: T1, 3',5'-cyclic-AMP phosphodiesterase 4D (Homo sapiens, UniProt Q08499); assay: Inhibition of PDE4D7 (unknown origin) using FAM-cyclic-3',5'-AMP as substrate incubated for 1 hrs by fluorescence polarization based IMAP assay
[2] = biological target: T1, 3',5'-cyclic-AMP phosphodiesterase 4D; assay: Inhibition of PDE4D7 (unknown origin) using FAM-cyclic-3',5'-AMP as substrate at 100 nM incubated for 1 hrs by fluorescence polarization based IMAP assay relative to control
[3] = biological target: T1, 3',5'-cyclic-AMP phosphodiesterase 4D; assay: Inhibition of PDE4D7 (unknown origin) using FAM-cyclic-3',5'-AMP as substrate at 10 nM incubated for 1 hrs by fluorescence polarization based IMAP assay relative to control
SH-SY5Y = assay: Cytotoxicity against human SH-SY5Y cells assessed as reduction in cell viability at 20 uM incubated for 48 hrs by MTT assay; assay type: toxicity, cell-based
HT-22 = assay: Cytotoxicity against mouse HT-22 cells assessed as reduction in cell viability at 30 uM incubated for 48 hrs by MTT assay; assay type: toxicity, cell-based; details: ht-22, 48 h
[4] = biological target: T1, 3',5'-cyclic-AMP phosphodiesterase 4D; assay: Inhibition of PDE4D7 (unknown origin) using FAM-cyclic-3',5'-AMP as substrate at 1 microM incubated for 1 hrs by fluorescence polarization based IMAP assay relative to control
[5] = Toxicity in ketamine/xylazine-induced anesthetic C57BL/6J mouse model assessed as emetogenic potential by measuring reduction in anesthesia duration at 0.5 to 1 mg/kg, po preadministered with compound for 15 mins followed by ketamine/xylazine administration; assay type: organism-based; details: in vivo, 0.25 h, dose 0.5-1 mg/kg
Mus musculus [6] = assay: Protection against alcohol use disorder in C57BL/6J mouse model assessed as decrease in alcohol intake at 1 mg/kg, po pre-trained with alcohol and water for 42 days with subsequent compound addition on day 22 and measured after 3 weeks by two-bottle choice test; assay type: functional, organism-based
Mus musculus [7] = assay: Protection against alcohol use disorder in C57BL/6J mouse model assessed as decrease in alcohol preference at 1 mg/kg, po pre-trained with alcohol and water for 42 days with subsequent compound addition on day 22 and measured after 3 weeks by two-bottle choice test; assay type: functional, organism-based
Mus musculus [8] = assay: Protection against alcohol use disorder in C57BL/6J mouse model assessed as decrease in alcohol intake at 1 mg/kg, po pre-trained with alcohol and water for 42 days with subsequent compound addition from day 22 to day 42 followed by 3.5 hrs of darkness and compound administration for 30 mins followed by water replacement with alcohol for 4 hrs on day 46 by Drink-in-Dark test; assay type: functional, organism-based; details: time 23.0 day
Mus musculus [9] = assay: Protection against alcohol exposure-induced anxiety like behavior in C57BL/6J mouse model assessed as distance travelled at 1 mg/kg, po pre-trained with alcohol and water for 42 days with subsequent compound addition from day 22 to day 42 followed by 3.5 hrs of darkness and compound administration for 30 mins followed by water replacement with alcohol for 4 hrs and measured 24 hrs after alcohol withdrawal by open field test; assay type: functional, organism-based
Mus musculus [10] = assay: Protection against alcohol exposure-induced anxiety like behavior in C57BL/6J mouse model assessed as increase in center time at 1 mg/kg, po pre-trained with alcohol and water for 42 days with subsequent compound addition from day 22 to day 42 followed by 3.5 hrs of darkness and compound administration for 30 mins followed by water replacement with alcohol for 4 hrs and measured 24 hrs after alcohol withdrawal by open field test; assay type: functional, organism-based
Mus musculus [11] = assay: Protection against alcohol-induced sedation in C57BL/6J mouse model assessed as reduction in sleep time at 1 mg/kg, po preadministered with compound every 24 hrs for 3 times followed by alcohol administration 30 mins post last dose; assay type: functional, organism-based; details: time 72.5 hrs
Mus musculus [12] = assay: Protection against alcohol-induced motor impairment in C57BL/6J mouse model assessed as short recovery time by measuring latency to falling off at 1 mg/kg, po preadministered with compound every 24 hrs for 3 times followed by alcohol administration 30 mins post last dose and further treated with compound for 3 days followed by alcohol administration 30 mins post last dose and measured at 2 to 20 mins by rotarod test; assay type: functional, organism-based; details: time 8702-8720 min
Mus musculus [13] = assay: Protection against alcohol-induced motor impairment in C57BL/6J mouse model assessed as increase in distance travelled at 1 mg/kg, po preadministered with compound every 24 hrs for 3 times followed by alcohol administration 30 mins post last dose and further treated with compound for 3 days followed by alcohol administration 30 mins post last dose and measured at 2 to 20 mins by open field test; assay type: functional, organism-based; details: time 8702-8720 min
Mus musculus [14] = assay: Protection against alcohol-induced motor impairment in C57BL/6J mouse model assessed as recovery of average speed at 1 mg/kg, po preadministered with compound every 24 hrs for 3 times followed by alcohol administration 30 mins post last dose and further treated with compound for 3 days followed by alcohol administration 30 mins post last dose and measured at 2 to 20 mins by open field test; assay type: functional, organism-based; details: time 8702-8720 min
Mus musculus [15] = assay: Protection against alcohol-induced motor impairment in C57BL/6J mouse model assessed as decrease in resting time at 1 mg/kg, po preadministered with compound every 24 hrs for 3 times followed by alcohol administration 30 mins post last dose and further treated with compound for 3 days followed by alcohol administration 30 mins post last dose and measured at 2 to 20 mins by open field test; assay type: functional, organism-based; details: time 8702-8720 min
Mus musculus [16] = assay: Protection against alcoholic liver disease in NIAAA C57BL/6J mouse model assessed as decrease in liver index at 1 mg/kg, po preadministered with 1 to 4 % of alcohol for 10 days with subsequent compound addition from day 6 to 11 and further administered with 31.25 % alcohol on day 11 and measured after 9 hrs; assay type: functional, organism-based; details: time 5.0 day
Mus musculus [17] = assay: Protection against alcoholic liver disease in NIAAA C57BL/6J mouse model assessed as decrease in serum ALT level at 1 mg/kg, po preadministered with 1 to 4 % of alcohol for 10 days with subsequent compound addition from day 6 to 11 and further administered with 31.25 % alcohol on day 11 and measured after 9 hrs by absorbance based plate analyzer; assay type: functional, organism-based; details: time 5.0 day
Mus musculus [18] = assay: Protection against alcoholic liver disease in NIAAA C57BL/6J mouse model assessed as decrease in serum AST level at 1 mg/kg, po preadministered with 1 to 4 % of alcohol for 10 days with subsequent compound addition from day 6 to 11 and further administered with 31.25 % alcohol on day 11 and measured after 9 hrs by absorbance based plate analyzer; assay type: functional, organism-based; details: time 5.0 day
Mus musculus [19] = assay: Protection against alcoholic liver disease in NIAAA C57BL/6J mouse model assessed as improvement of liver injury at 1 mg/kg, po preadministered with 1 to 4 % of alcohol for 10 days with subsequent compound addition from day 6 to 11 and further administered with 31.25 % alcohol on day 11 and measured after 9 hrs by H&E staining based light microscopic analysis; assay type: functional, organism-based; details: time 5.0 day
Mus musculus [20] = assay: Protection against alcoholic liver disease in NIAAA C57BL/6J mouse model assessed as improvement of steatosis at 1 mg/kg, po preadministered with 1 to 4 % of alcohol for 10 days with subsequent compound addition from day 6 to 11 and further administered with 31.25 % alcohol on day 11 and measured after 9 hrs by H&E staining based light microscopic analysis; assay type: functional, organism-based; details: time 5.0 day
Mus musculus [21] = assay: Protection against alcoholic liver disease in NIAAA C57BL/6J mouse model assessed as improvement of liver injury at 1 mg/kg, po preadministered with 1 to 4 % of alcohol for 10 days with subsequent compound addition from day 6 to 11 and further administered with 31.25 % alcohol on day 11 and measured after 9 hrs by Oil Red O staining based light microscopic analysis; assay type: functional, organism-based; details: time 5.0 day
Mus musculus [22] = assay: Protection against alcoholic liver disease in NIAAA C57BL/6J mouse model assessed as improvement of steatosis at 1 mg/kg, po preadministered with 1 to 4 % of alcohol for 10 days with subsequent compound addition from day 6 to 11 and further administered with 31.25 % alcohol on day 11 and measured after 9 hrs by Oil Red O staining based light microscopic analysis; assay type: functional, organism-based; details: time 5.0 day
Mus musculus [23] = assay: Protection against alcoholic liver disease in NIAAA C57BL/6J mouse model assessed as reduction in serum IL-6 level at 1 mg/kg, po preadministered with 1 to 4 % of alcohol for 10 days with subsequent compound addition from day 6 to 11 and further administered with 31.25 % alcohol on day 11 and measured after 9 hrs by ELISA; assay type: functional, organism-based; details: time 5.0 day
Mus musculus [24] = assay: Protection against alcoholic liver disease in NIAAA C57BL/6J mouse model assessed as reduction in serum TNF-alpha level at 1 mg/kg, po preadministered with 1 to 4 % of alcohol for 10 days with subsequent compound addition from day 6 to 11 and further administered with 31.25 % alcohol on day 11 and measured after 9 hrs by ELISA; assay type: functional, organism-based; details: time 5.0 day
Mus musculus [25] = assay: Protection against alcoholic liver disease in NIAAA C57BL/6J mouse model assessed as reduction in liver TNF-alpha mRNA level at 1 mg/kg, po preadministered with 1 to 4 % of alcohol for 10 days with subsequent compound addition from day 6 to 11 and further administered with 31.25 % alcohol on day 11 and measured after 9 hrs by RT-qPCR analysis; assay type: functional, organism-based; details: time 5.0 day
Mus musculus [26] = assay: Protection against alcoholic liver disease in NIAAA C57BL/6J mouse model assessed as reduction in liver IL-6 mRNA level at 1 mg/kg, po preadministered with 1 to 4 % of alcohol for 10 days with subsequent compound addition from day 6 to 11 and further administered with 31.25 % alcohol on day 11 and measured after 9 hrs by RT-qPCR analysis; assay type: functional, organism-based; details: time 5.0 day
Mus musculus [27] = assay: Protection against alcoholic liver disease in NIAAA C57BL/6J mouse model assessed as reduction in liver IL-1beta mRNA level at 1 mg/kg, po preadministered with 1 to 4 % of alcohol for 10 days with subsequent compound addition from day 6 to 11 and further administered with 31.25 % alcohol on day 11 and measured after 9 hrs by RT-qPCR analysis; assay type: functional, organism-based; details: time 5.0 day
[28] = Chemical stability of compound in aqueous solution at pH <6 measured after 48 hrs; assay type: physicochemical; details: buffer
[29] = Chemical stability of compound in aqueous solution at pH >10 measured after 48 hrs; assay type: physicochemical; details: buffer
[30] = Oral bioavailability in Sprague-Dawley rat at 5 mg/kg measured after 24 hrs by LC-MS/MS analysis; assay type: ADME, organism-based; details: in vivo
[31] = Toxicity in ketamine/xylazine-induced anesthetic C57BL/6J mouse model assessed as emetogenic potential by measuring reduction in anesthesia duration at 0.5 mg/kg, po preadministered with compound for 15 mins followed by ketamine/xylazine administration; assay type: organism-based; details: in vivo, 0.25 h

T1 sequence (Q08499 whole entry): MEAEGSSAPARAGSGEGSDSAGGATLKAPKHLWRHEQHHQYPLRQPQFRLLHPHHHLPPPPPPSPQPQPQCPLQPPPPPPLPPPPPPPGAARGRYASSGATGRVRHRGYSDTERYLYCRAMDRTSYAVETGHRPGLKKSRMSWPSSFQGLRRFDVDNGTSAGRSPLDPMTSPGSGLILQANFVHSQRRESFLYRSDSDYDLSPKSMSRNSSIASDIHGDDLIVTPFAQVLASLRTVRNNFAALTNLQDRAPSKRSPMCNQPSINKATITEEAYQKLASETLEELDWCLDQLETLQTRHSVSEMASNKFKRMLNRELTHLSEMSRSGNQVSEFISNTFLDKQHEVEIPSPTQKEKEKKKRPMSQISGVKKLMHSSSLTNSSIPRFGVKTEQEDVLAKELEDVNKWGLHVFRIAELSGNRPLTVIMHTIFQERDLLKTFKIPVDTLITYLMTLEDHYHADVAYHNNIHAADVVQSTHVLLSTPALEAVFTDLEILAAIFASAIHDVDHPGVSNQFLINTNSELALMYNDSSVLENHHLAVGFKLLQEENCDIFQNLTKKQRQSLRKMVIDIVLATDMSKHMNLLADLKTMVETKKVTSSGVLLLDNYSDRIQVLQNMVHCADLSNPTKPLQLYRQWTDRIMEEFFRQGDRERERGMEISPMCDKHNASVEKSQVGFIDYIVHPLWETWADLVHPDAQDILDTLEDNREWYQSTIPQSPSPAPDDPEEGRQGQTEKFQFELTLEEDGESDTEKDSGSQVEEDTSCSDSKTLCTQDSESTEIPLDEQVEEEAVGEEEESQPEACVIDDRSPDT

CCOc1nc(Cl)cc2nn(CC(=O)NO)cc12
IC50 [1]: 20.2 nM
inhibition [2]: 69%
inhibition [3]: 36%
Activity (SH-SY5Y): Non-Toxic
Activity (HT-22): Non-Toxic

CCOc1nc(Cl)cc2c1cnn2CC(=O)NO
IC50 [1]: 16.6 nM
inhibition [2]: 68%
inhibition [3]: 41%
Activity (SH-SY5Y): Non-Toxic
Activity (HT-22): Non-Toxic

COc1ccc(C2CNC(=O)C2)cc1OC1CCCC1 (stereo not given) [ROLIPRAM]
inhibition [4]: 72%
inhibition [2]: 34%
Activity [5]: Toxic
Activity (Mus musculus [6]): Active
Activity (Mus musculus [7]): Active
Activity (Mus musculus [8]): Active
Activity (Mus musculus [9]): Active
Activity (Mus musculus [10]): Active
Activity (Mus musculus [11]): inactive
Activity (Mus musculus [12]): inactive
Activity (Mus musculus [13]): Active
Activity (Mus musculus [14]): Active
Activity (Mus musculus [15]): Active
Activity (Mus musculus [16]): Active
Activity (Mus musculus [17]): Active
Activity (Mus musculus [18]): Active
Activity (Mus musculus [19]): Active
Activity (Mus musculus [20]): Active
Activity (Mus musculus [21]): Active
Activity (Mus musculus [22]): Active
Activity (Mus musculus [23]): Active
Activity (Mus musculus [24]): Active
Activity (Mus musculus [25]): Active
Activity (Mus musculus [26]): Active
Activity (Mus musculus [27]): Active

CCOc1nc(Cl)cc2nn(CCCO)cc12
IC50 [1]: 71.3 nM
inhibition [2]: 53%
inhibition [3]: 21%
Activity (SH-SY5Y): Non-Toxic
Activity (HT-22): Non-Toxic

CCOc1nc(Cl)nc2c1cnn2C1CCOCC1
Stability [28]: Unstable
Stability [29]: Unstable

CC(C)NC(=O)c1ccc(OC(F)F)c(OCC2CC2)c1
bioavailability [30]: 1.2%

CCOc1nc(Cl)cc2c1cnn2C1CCOCC1
IC50 [1]: 92.7 nM
inhibition [4]: 95%
inhibition [2]: 64%
Stability [28]: Stable
Stability [29]: Stable

CCOc1cc([C@@H](CS(C)(=O)=O)N2C(=O)c3cccc(NC(C)=O)c3C2=O)ccc1OC [APREMILAST]
Activity [31]: Toxic

O=C(Nc1c(Cl)cncc1Cl)c1ccc(OC(F)F)c(OCC2CC2)c1 [ROFLUMILAST]
Activity [31]: Toxic
